pEC50, pIC50: −log10 of the molar value.
Columns and labels:
[1] = tested on: CCL17 secretion in peripheral human whole blood; experiment: Human Whole Blood (HWB) CCL17 TR-FRET Assay (IL-13 stimulated CCL17 secretion); format: cell-based; conditions: human whole blood, IL-13 stimulated
Summary of the method: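 Measured here: CCL17 in serum by TR-FRET (665/615 nm) after overnight (16 h) room-temperature detection. The blood, heparinized and compound-treated for 2 h, received IL-13 at 10 ng/mL final and was cultured 48 h at 37 °C.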

STAT6 = molecular target: T1, STAT6 (Homo sapiens, UniProt P42226); experiment: STAT6 Reporter Luciferase Assay (IL-13 stimulated HaCaT keratinocyte NanoLuc reporter cells); format: cell-based; conditions: IL-13 stimulated HaCaT STAT6 NanoLuc reporter cells; read-out: Reporter EC50
T1 construct: stably transfected HaCaT keratinocyte cell line, which expresses NanoLuc luciferase reporter gene under the transcriptional control of the STAT6 responsive promoter; endogenous in cells; host or cells: HaCaT keratinocyte reporter cell line (stably transfected with a NanoLuc reporter)
T1 sequence (P42226 1-847): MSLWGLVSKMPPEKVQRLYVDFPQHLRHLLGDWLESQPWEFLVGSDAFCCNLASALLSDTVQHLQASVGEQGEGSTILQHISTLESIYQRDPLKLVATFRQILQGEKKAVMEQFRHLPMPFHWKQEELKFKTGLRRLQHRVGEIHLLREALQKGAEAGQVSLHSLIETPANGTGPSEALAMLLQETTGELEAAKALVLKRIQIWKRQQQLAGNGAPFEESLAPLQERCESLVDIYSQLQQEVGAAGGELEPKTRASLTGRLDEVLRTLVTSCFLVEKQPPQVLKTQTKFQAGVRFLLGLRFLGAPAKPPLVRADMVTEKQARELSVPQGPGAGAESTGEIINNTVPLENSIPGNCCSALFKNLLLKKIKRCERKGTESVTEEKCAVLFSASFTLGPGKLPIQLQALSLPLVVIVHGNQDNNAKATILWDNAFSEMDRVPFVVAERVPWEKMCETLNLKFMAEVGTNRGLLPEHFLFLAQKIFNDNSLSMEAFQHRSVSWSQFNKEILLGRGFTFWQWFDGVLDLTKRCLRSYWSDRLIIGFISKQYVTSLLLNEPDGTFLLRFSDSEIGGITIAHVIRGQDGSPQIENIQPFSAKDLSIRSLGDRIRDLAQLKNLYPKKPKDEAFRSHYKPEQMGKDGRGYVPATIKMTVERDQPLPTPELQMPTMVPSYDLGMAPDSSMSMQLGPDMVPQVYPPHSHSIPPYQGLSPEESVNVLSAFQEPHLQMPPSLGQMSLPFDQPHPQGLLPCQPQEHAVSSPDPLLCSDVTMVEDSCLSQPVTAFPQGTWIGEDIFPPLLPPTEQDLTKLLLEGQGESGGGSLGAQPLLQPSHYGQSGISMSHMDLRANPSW
Summary of the method: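 HaCaT cells stably carrying a NanoLuc reporter driven by the STAT6-responsive IL-13Ra2 promoter were preincubated with compounds for 2 h at 37 °C in 2% FBS medium. Cells were then stimulated with 0.12 nM IL-13 for 4 h, and luminescence was read after Nano-Glo substrate. Compounds ran as 11-point 4-fold dilutions in duplicate.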

Structure (SMILES)	pIC50 ([1]; 48 hours)	pEC50 (STAT6)	pIC50 ([1]; Homo sapiens, 48 h)
CCC1Cc2c(c(C(=O)NCc3ccc(NC(=O)N(C)C)cc3)nn2C)CN1c1ccc(C(=O)N(C)C)cn1 (single isomer, unassigned) [Example 270, rel-(R or S)-5-(5-(dimethylcarbamoyl)pyridin-2-yl)-N-(4-(3,3-dimethylureido)benzyl)-6-ethyl-1-methyl-4,5,6,7-tetrahydro-1H-pyrazolo[4,3-c]pyridine-3-carboxamide]	7.48	8.15	
CC(C)C1CN(c2ccc(C(=O)N(C)C)cn2)Cc2c(C(=O)NCc3ccc(NC(=O)N(C)C)cc3)nn(C)c21 (single isomer, unassigned) [Example 271, rel-(R or S)-5-(5-(dimethylcarbamoyl)pyridin-2-yl)-N-(4-(3,3-dimethylureido)benzyl)-7-isopropyl-1-methyl-4,5,6,7-tetrahydro-1H-pyrazolo[4,3-c]pyridine-3-carboxamide]	6.74	7.96	
CC(C)C1CN(c2ccc(C(=O)N(C)C)cn2)Cc2c(C(=O)NCc3ccc(NC(=O)N(C)C)cc3)nn(C)c21 (single isomer, unassigned) [Example 272, rel-(R or S)-5-(5-(dimethylcarbamoyl)pyridin-2-yl)-N-(4-(3,3-dimethylureido)benzyl)-7-isopropyl-1-methyl-4,5,6,7-tetrahydro-1H-pyrazolo[4,3-c]pyridine-3-carboxamide]	7.52	8.40	
C[C@H]1CN(c2ncc(C(=O)N(C)C)cn2)Cc2c(C(=O)NCc3ccc(NC(=O)N(C)C)cc3)nn(C)c21 (single isomer, unassigned) [Example 273]		8.52	7.92
CN(C)C(=O)Nc1ccc(CNC(=O)c2nn(C)c3c2[C@H]2CCC[C@@H](C3)N2c2ccc(C(=O)N(C)C)cn2)cc1 (single isomer, unassigned) [Example 274]		6.16	5.32
CN(C)C(=O)Nc1ccc(CNC(=O)c2nn(C)c3c2[C@H]2CCC[C@@H](C3)N2c2ccc(C(=O)N(C)C)cn2)cc1 (single isomer, unassigned) [Example 275]	7.52	8.15	
CC(C)n1nc(C(=O)NCc2ccc(NC(=O)N(C)C)cc2)c2c1CC(C(F)(F)F)N(c1ccc(C(=O)N(C)C)cn1)C2 (single isomer, unassigned) [Example 276, rel-(R or S)-5-(5-(dimethylcarbamoyl)pyridin-2-yl)-N-(4-(3,3-dimethylureido)benzyl)-1-isopropyl-6-(trifluoromethyl)-4,5,6,7-tetrahydro-1H-pyrazolo[4,3-c]pyridine-3-carboxamide]	7.55	8.70	
CC(C)n1nc(C(=O)NCc2ccc(NC(=O)N(C)C)cc2)c2c1CC(C(F)(F)F)N(c1ccc(C(=O)N(C)C)cn1)C2 (single isomer, unassigned) [Example 277, rel-(R or S)-5-(5-(dimethylcarbamoyl)pyridin-2-yl)-N-(4-(3,3-dimethylureido)benzyl)-1-isopropyl-6-(trifluoromethyl)-4,5,6,7-tetrahydro-1H-pyrazolo[4,3-c]pyridine-3-carboxamide]	6.96	8.00	
CC1CN(c2ccc(C(=O)N(C)C)cn2)Cc2c1nn1c2C(=O)N(Cc2ccc(NC(=O)N(C)C)cc2)CC1 (single isomer, unassigned) [Example 280, rel-(R or S)-6-(9-(4-(3,3-dimethylureido)benzyl)-4-methyl-10-oxo-3,4,7,8,9,10-hexahydropyrido[4′,3′:3,4]pyrazolo[1,5-alpyrazin-2(1H)-yl)-N,N-dimethylnicotinamide]		8.00	6.87

More lines, now with the values ahead:

pIC50 ([1]; 48 hours)	pEC50 (STAT6)	pIC50 ([1]; Homo sapiens, 48 h)	Structure (SMILES)
6.67	7.77		CC1CN(c2ccc(C(=O)N(C)C)cn2)Cc2c1nn1c2C(=O)N(Cc2ccc(NC(=O)N(C)C)cc2)CC1 (single isomer, unassigned) [Example 281, rel-(R or S)-6-(9-(4-(3,3-dimethylureido)benzyl)-4-methyl-10-oxo-3,4,7,8,9,10-hexahydropyrido[4′,3′:3,4]pyrazolo[1,5-alpyrazin-2(1H)-yl)-N,N-dimethylnicotinamide]
	9.00	8.15	C[C@H]1CN(c2ccc(C(=O)N(C)C)cn2)Cc2c(C(=O)NCc3ccc(NC(=O)N(C)C)cc3)nn(C3(C)CC3)c21 (single isomer, unassigned) [Example 285]
	9.00	7.89	C[C@H]1CN(c2ccc(C(=O)N(C)C)cn2)Cc2c(C(=O)NCc3ccc(NC(=O)N(C)C)cc3)nn(CC3CC3)c21 (single isomer, unassigned) [Example 287]
6.48	7.66		CCn1nc(C(=O)NCc2ccc(NC(=O)N(C)C)cc2)c2c1C(C(F)(F)F)CN(c1ccc(C(=O)N(C)C)cn1)C2 (single isomer, unassigned) [Example 303, rel-(R or S)-5-(5-(dimethylcarbamoyl)pyridin-2-yl)-N-(4-(3,3-dimethylureido)benzyl)-1-ethyl-7-(trifluoromethyl)-4,5,6,7-tetrahydro-1H-pyrazolo[4,3-c]pyridine-3-carboxamide]
8.40	9.52		CCn1nc(C(=O)NCc2ccc(NC(=O)N(C)C)cc2)c2c1C(C(F)(F)F)CN(c1ccc(C(=O)N(C)C)cn1)C2 (single isomer, unassigned) [Example 304, rel-(R or S)-5-(5-(dimethylcarbamoyl)pyridin-2-yl)-N-(4-(3,3-dimethylureido)benzyl)-1-ethyl-7-(trifluoromethyl)-4,5,6,7-tetrahydro-1H-pyrazolo[4,3-c]pyridine-3-carboxamide]
	9.30	8.15	C[C@H]1CN(c2ccc(C(=O)N(C)C)cn2)Cc2c(C(=O)NCc3ccc(NC(=O)N(C)C)cc3)nn(CC(F)(F)F)c21 (single isomer, unassigned) [Example 307]
6.94	8.10		CCC1CN(c2ccc(C(=O)N(C)C)cn2)Cc2c(C(=O)NCc3ccc(NC(=O)N(C)C)cc3)nn(C(C)C)c21 (single isomer, unassigned) [Example 310, rel-(R or S)-5-(5-(dimethylcarbamoyl)pyridin-2-yl)-N-(4-(3,3-dimethylureido)benzyl)-7-ethyl-1-isopropyl-4,5,6,7-tetrahydro-1H-pyrazolo[4,3-c]pyridine-3-carboxamide]
7.96	9.00		CCC1CN(c2ccc(C(=O)N(C)C)cn2)Cc2c(C(=O)NCc3ccc(NC(=O)N(C)C)cc3)nn(C(C)C)c21 (single isomer, unassigned) [Example 311, rel-(R or S)-5-(5-(dimethylcarbamoyl)pyridin-2-yl)-N-(4-(3,3-dimethylureido)benzyl)-7-ethyl-1-isopropyl-4,5,6,7-tetrahydro-1H-pyrazolo[4,3-c]pyridine-3-carboxamide]
6.79	8.00		CCC1CN(c2ccc(C(=O)N(C)C)cn2)Cc2c(C(=O)NCc3ccc(NC(=O)N(C)C)cc3)nn(CC)c21 (single isomer, unassigned) [Example 312, rel-(R or S)-5-(5-(dimethylcarbamoyl)pyridin-2-yl)-N-(4-(3,3-dimethylureido)benzyl)-1,7-diethyl-4,5,6,7-tetrahydro-1H-pyrazolo[4,3-c]pyridine-3-carboxamide]
7.82	9.00		CCC1CN(c2ccc(C(=O)N(C)C)cn2)Cc2c(C(=O)NCc3ccc(NC(=O)N(C)C)cc3)nn(CC)c21 (single isomer, unassigned) [Example 313, rel-(R or S)-5-(5-(dimethylcarbamoyl)pyridin-2-yl)-N-(4-(3,3-dimethylureido)benzyl)-1,7-diethyl-4,5,6,7-tetrahydro-1H-pyrazolo[4,3-c]pyridine-3-carboxamide]
8.40	9.40		CCC(C)n1nc(C(=O)NCc2ccc(NC(=O)N(C)C)cc2)c2c1[C@@H](C)CN(c1ccc(C(=O)N(C)C)cn1)C2 (single isomer, unassigned) [Example 318, (S)-1-((R*)-sec-butyl)-5-(5-(dimethylcarbamoyl)pyridin-2-yl)-N-(4-(3,3-dimethylureido)benzyl)-7-methyl-4,5,6,7-tetrahydro-1H-pyrazolo[4,3-c]pyridine-3-carboxamide]

— patent US20250320213A1, “Nitrogen-Containing Heterocyclic Compounds” (Pfizer Inc., priority 2024, published 2025)
